Measurements from patent US20190185518A9, “WARHEAD-CONTAINING PEPTIDOMIMETIC MACROCYCLES AS MODULATORS OF BFL-1” (AILERON Therapeutics, Inc., priority 2017, published 2019).
Positions of bridges follow the written chain, without caps; N, C: chain ends. Non-standard residues stand in square brackets, D forms with d. Residues, ends and D or L forms follow the SMILES beside them. 2Nal = N[C@@H](Cc1ccc2ccccc2c1)C(=O)O; R8 = C=CCCCCCC[C@@](C)(N)C(=O)O; S5 = C=CCCC[C@](C)(N)C(=O)O

What follows are molecules tested against Mcl-1 (Homo sapiens, UniProt Q07820) (assay: Ki determination for Mcl-1 (BCL-2 family binding spectrum)). Details: read-out: Ki MCL-1.
Source text: To assess the binding and affinity of compounds that antagonize the interaction between a peptide and an acceptor protein, a fluorescence polarization assay (FPA) utilizing a fluoresceinated peptidomimetic macrocycle derived from a peptidomimetic precursor sequence is used, for example. The FPA technique measures the molecular orientation and mobility using polarized light and fluorescent tracer. […] A compound that antagonizes the interaction between the fluoresceinated peptidomimetic macrocycle and an acceptor protein will be detected in a competitive binding FPA experiment.
Antagonist binding activity is measured, for example, by fluorescence polarization on a luminescence spectrophotometer (e.g. Perkin-Elmer LS50B). Kd values may be determined by nonlinear regression analysis using, for example, Graphpad Prism software (GraphPad Software, Inc., San Diego, Calif.).

Sequence of Mcl-1 (Q07820 whole entry, species assumed): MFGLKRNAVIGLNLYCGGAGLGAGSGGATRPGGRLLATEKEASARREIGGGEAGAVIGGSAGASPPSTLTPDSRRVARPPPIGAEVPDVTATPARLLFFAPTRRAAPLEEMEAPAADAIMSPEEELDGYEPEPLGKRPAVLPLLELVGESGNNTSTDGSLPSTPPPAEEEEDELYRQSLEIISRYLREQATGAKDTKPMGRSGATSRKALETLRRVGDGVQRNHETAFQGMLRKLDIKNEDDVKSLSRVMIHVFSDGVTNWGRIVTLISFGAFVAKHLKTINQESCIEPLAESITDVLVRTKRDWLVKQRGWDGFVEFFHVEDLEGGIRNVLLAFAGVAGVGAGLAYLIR

Structure (SMILES)	Ki [nM]
CC[C@H](C)[C@H](NC(C)=O)C(=O)N[C@@H](Cc1ccccc1)C(=O)N[C@H](C(=O)N[C@@H](C)C(=O)N[C@@H](C)C(=O)N[C@@H](C)C(=O)N[C@@H](CC(C)C)C(=O)N[C@@H](CCCNC(=N)N)C(=O)N[C@]1(C)CCCCCCC=CCCC[C@@](C)(C(=O)N[C@@H](Cc2ccc(O)cc2)C(=O)N[C@@H](Cc2ccc(O)cc2)C(=O)N[C@@H](C)C(N)=O)NC(=O)[C@H](CC(N)=O)NC(=O)[C@H](Cc2ccccc2)NC(=O)[C@H](C)NC(=O)[C@H](CC(=O)O)NC(=O)CNC(=O)[C@H]([C@@H](C)CC)NC1=O)[C@@H](C)CC [compound 1731] (Ac-IFIAAALR[R8]IGDAFN[S5]YYA-NH2; staple 9-16)	10.2
CC[C@H](C)[C@H](NC(C)=O)C(=O)N[C@@H](Cc1ccc2ccccc2c1)C(=O)N[C@H](C(=O)N[C@@H](C)C(=O)N[C@@H](C)C(=O)N[C@@H](C)C(=O)N[C@@H](CC(C)C)C(=O)N[C@@H](CCCNC(=N)N)C(=O)N[C@]1(C)CCCCCCC=CCCC[C@@](C)(C(=O)N[C@@H](Cc2ccc(O)cc2)C(=O)N[C@@H](Cc2ccc(O)cc2)C(=O)N[C@@H](C)C(N)=O)NC(=O)[C@H](CC(N)=O)NC(=O)[C@H](Cc2ccccc2)NC(=O)[C@H](C)NC(=O)[C@H](CC(=O)O)NC(=O)CNC(=O)[C@H]([C@@H](C)CC)NC1=O)[C@@H](C)CC [compound 1732] (Ac-I[2Nal]IAAALR[R8]IGDAFN[S5]YYA-NH2; staple 9-16)	13.7
CC[C@H](C)[C@H](NC(C)=O)C(=O)N[C@@H](Cc1c[nH]c2ccccc12)C(=O)N[C@H](C(=O)N[C@@H](CO)C(=O)N[C@@H](C)C(=O)N[C@@H](C)C(=O)N[C@@H](CC(C)C)C(=O)N[C@@H](CCCNC(=N)N)C(=O)N[C@]1(C)CCCCCCC=CCCC[C@@](C)(C(=O)N[C@@H](Cc2ccc(O)cc2)C(=O)N[C@@H](Cc2ccc(O)cc2)C(=O)N[C@@H](C)C(N)=O)NC(=O)[C@H](CC(N)=O)NC(=O)[C@H](Cc2ccccc2)NC(=O)[C@H](C)NC(=O)[C@H](CC(=O)O)NC(=O)CNC(=O)[C@H]([C@@H](C)CC)NC1=O)[C@@H](C)CC [compound 1733] (Ac-IWISAALR[R8]IGDAFN[S5]YYA-NH2; staple 9-16)	3.6
CC[C@H](C)[C@H](NC(C)=O)C(=O)N[C@@H](Cc1c[nH]c2ccccc12)C(=O)N[C@H](C(=O)N[C@@H](CC(C)C)C(=O)N[C@@H](C)C(=O)N[C@@H](C)C(=O)N[C@@H](CC(C)C)C(=O)N[C@@H](CCCNC(=N)N)C(=O)N[C@]1(C)CCCCCCC=CCCC[C@@](C)(C(=O)N[C@@H](Cc2ccc(O)cc2)C(=O)N[C@@H](Cc2ccc(O)cc2)C(=O)N[C@@H](C)C(N)=O)NC(=O)[C@H](CC(N)=O)NC(=O)[C@H](Cc2ccccc2)NC(=O)[C@H](C)NC(=O)[C@H](CC(=O)O)NC(=O)CNC(=O)[C@H]([C@@H](C)CC)NC1=O)[C@@H](C)CC [compound 1734] (Ac-IWILAALR[R8]IGDAFN[S5]YYA-NH2; staple 9-16)	19.7
CC[C@H](C)[C@H](NC(C)=O)C(=O)N[C@@H](Cc1c[nH]c2ccccc12)C(=O)N[C@H](C(=O)N[C@@H](C)C(=O)N[C@@H](CC(C)C)C(=O)N[C@@H](C)C(=O)N[C@@H](CC(C)C)C(=O)N[C@@H](CCCNC(=N)N)C(=O)N[C@]1(C)CCCCCCC=CCCC[C@@](C)(C(=O)N[C@@H](Cc2ccc(O)cc2)C(=O)N[C@@H](Cc2ccc(O)cc2)C(=O)N[C@@H](C)C(N)=O)NC(=O)[C@H](CC(N)=O)NC(=O)[C@H](Cc2ccccc2)NC(=O)[C@H](C)NC(=O)[C@H](CC(=O)O)NC(=O)CNC(=O)[C@H]([C@@H](C)CC)NC1=O)[C@@H](C)CC [compound 1736] (Ac-IWIALALR[R8]IGDAFN[S5]YYA-NH2; staple 9-16)	11.6
CC[C@H](C)[C@H](NC(C)=O)C(=O)N[C@@H](Cc1c[nH]c2ccccc12)C(=O)N[C@H](C(=O)N[C@@H](C)C(=O)N[C@@H](C)C(=O)N[C@@H](C)C(=O)N[C@@H](CC(C)C)C(=O)N[C@@H](CCCNC(=N)N)C(=O)N[C@]1(C)CCCCCCC=CCCC[C@@](C)(C(=O)N[C@@H](Cc2ccc(O)cc2)C(=O)N[C@@H](Cc2ccc(O)cc2)C(=O)N[C@@H](C)C(N)=O)NC(=O)[C@H](CO)NC(=O)[C@H](Cc2ccccc2)NC(=O)[C@H](C)NC(=O)[C@H](CC(=O)O)NC(=O)CNC(=O)[C@H]([C@@H](C)CC)NC1=O)[C@@H](C)CC [compound 1751] (Ac-IWIAAALR[R8]IGDAFS[S5]YYA-NH2; staple 9-16)	8
CC[C@H](C)[C@H](NC(C)=O)C(=O)N[C@@H](Cc1c[nH]c2ccccc12)C(=O)N[C@H](C(=O)N[C@@H](C)C(=O)N[C@@H](CCC(N)=O)C(=O)N[C@@H](C)C(=O)N[C@@H](CC(C)C)C(=O)N[C@@H](CCCNC(=N)N)C(=O)N[C@]1(C)CCCCCCC=CCCC[C@@](C)(C(=O)N[C@@H](Cc2ccc(O)cc2)C(=O)N[C@@H](Cc2ccc3ccccc3c2)C(=O)N[C@@H](C)C(N)=O)NC(=O)[C@H](CC(N)=O)NC(=O)[C@H](Cc2ccccc2)NC(=O)[C@H](C)NC(=O)[C@H](CC(=O)O)NC(=O)CNC(=O)[C@H]([C@@H](C)CC)NC1=O)[C@@H](C)CC [compound 1759] (Ac-IWIAQALR[R8]IGDAFN[S5]Y[2Nal]A-NH2; staple 9-16)	8
CC[C@H](C)[C@H](NC(C)=O)C(=O)N[C@@H](Cc1c[nH]c2ccccc12)C(=O)N[C@H](C(=O)N[C@@H](C)C(=O)N[C@@H](C)C(=O)N[C@@H](C)C(=O)N[C@@H](CC(C)C)C(=O)N[C@@H](CCCNC(=N)N)C(=O)N[C@]1(C)CCCCCCC=CCCC[C@@](C)(C(=O)N[C@@H](Cc2ccc(O)cc2)C(=O)N[C@@H](Cc2ccc(O)cc2)C(=O)N[C@@H](CC(=O)O)C(N)=O)NC(=O)[C@H](CC(N)=O)NC(=O)[C@H](Cc2ccccc2)NC(=O)[C@H](C)NC(=O)[C@H](CC(=O)O)NC(=O)CNC(=O)[C@H]([C@@H](C)CC)NC1=O)[C@@H](C)CC [compound 1760] (Ac-IWIAAALR[R8]IGDAFN[S5]YYD-NH2; staple 9-16)	2.2
CC[C@H](C)[C@H](NC(C)=O)C(=O)N[C@@H](Cc1c[nH]c2ccccc12)C(=O)N[C@H](C(=O)N[C@@H](C)C(=O)N[C@@H](C)C(=O)N[C@@H](C)C(=O)N[C@@H](CC(C)C)C(=O)N[C@@H](CCCNC(=N)N)C(=O)N[C@]1(C)CCCCCCC=CCCC[C@@](C)(C(=O)N[C@@H](Cc2ccc(O)cc2)C(=O)N[C@@H](Cc2ccc(O)cc2)C(=O)N[C@@H](CCC(=O)O)C(N)=O)NC(=O)[C@H](CC(N)=O)NC(=O)[C@H](Cc2ccccc2)NC(=O)[C@H](C)NC(=O)[C@H](CC(=O)O)NC(=O)CNC(=O)[C@H]([C@@H](C)CC)NC1=O)[C@@H](C)CC [compound 1761] (Ac-IWIAAALR[R8]IGDAFN[S5]YYE-NH2; staple 9-16)	1.4
CC[C@H](C)[C@H](NC(C)=O)C(=O)N[C@@H](Cc1c[nH]c2ccccc12)C(=O)N[C@H](C(=O)N[C@@H](C)C(=O)N[C@@H](C)C(=O)N[C@@H](C)C(=O)N[C@@H](CC(C)C)C(=O)N[C@@H](CCCNC(=N)N)C(=O)N[C@]1(C)CCCCCCC=CCCC[C@@](C)(C(=O)N[C@@H](Cc2ccc(O)cc2)C(=O)N[C@@H](Cc2ccc(O)cc2)C(=O)N[C@@H](CCC(N)=O)C(N)=O)NC(=O)[C@H](CC(N)=O)NC(=O)[C@H](Cc2ccccc2)NC(=O)[C@H](C)NC(=O)[C@H](CC(=O)O)NC(=O)CNC(=O)[C@H]([C@@H](C)CC)NC1=O)[C@@H](C)CC [compound 1762] (Ac-IWIAAALR[R8]IGDAFN[S5]YYQ-NH2; staple 9-16)	4.6
CC[C@H](C)[C@H](NC(C)=O)C(=O)N[C@@H](Cc1c[nH]c2ccccc12)C(=O)N[C@H](C(=O)N[C@@H](C)C(=O)N[C@@H](C)C(=O)N[C@@H](C)C(=O)N[C@@H](CC(C)C)C(=O)N[C@@H](CCCNC(=N)N)C(=O)N[C@]1(C)CCCCCCC=CCCC[C@@](C)(C(=O)N[C@@H](Cc2ccc(O)cc2)C(=O)N[C@@H](Cc2ccc(O)cc2)C(=O)N[C@@H](Cc2c[nH]cn2)C(N)=O)NC(=O)[C@H](CC(N)=O)NC(=O)[C@H](Cc2ccccc2)NC(=O)[C@H](C)NC(=O)[C@H](CC(=O)O)NC(=O)CNC(=O)[C@H]([C@@H](C)CC)NC1=O)[C@@H](C)CC [compound 1764] (Ac-IWIAAALR[R8]IGDAFN[S5]YYH-NH2; staple 9-16)	10.6
CC[C@H](C)[C@H](NC(C)=O)C(=O)N[C@@H](Cc1c[nH]c2ccccc12)C(=O)N[C@H](C(=O)N[C@@H](C)C(=O)N[C@@H](C)C(=O)N[C@@H](C)C(=O)N[C@@H](CC(C)C)C(=O)N[C@@H](CCCNC(=N)N)C(=O)N[C@]1(C)CCCCCCC=CCCC[C@@](C)(C(=O)N[C@@H](Cc2ccc(O)cc2)C(=O)N[C@@H](Cc2ccc(O)cc2)C(=O)N[C@@H](CCCCN)C(N)=O)NC(=O)[C@H](CC(N)=O)NC(=O)[C@H](Cc2ccccc2)NC(=O)[C@H](C)NC(=O)[C@H](CC(=O)O)NC(=O)CNC(=O)[C@H]([C@@H](C)CC)NC1=O)[C@@H](C)CC [compound 1766] (Ac-IWIAAALR[R8]IGDAFN[S5]YYK-NH2; staple 9-16)	6.6
CC[C@H](C)[C@H](NC(C)=O)C(=O)N[C@@H](Cc1c[nH]c2ccccc12)C(=O)N[C@H](C(=O)N[C@@H](C)C(=O)N[C@@H](CCC(N)=O)C(=O)N[C@@H](C)C(=O)N[C@@H](CC(C)C)C(=O)N[C@@H](CCCNC(=N)N)C(=O)N[C@]1(C)CCCCCCC=CCCCC2(CCCC=CCCC[C@](C)(C(=O)N[C@@H](C)C(N)=O)NC(=O)[C@H](C)NC(=O)[C@H](Cc3ccc(O)cc3)NC(=O)[C@H](Cc3ccc(O)cc3)NC2=O)NC(=O)[C@H](CC(N)=O)NC(=O)[C@H](Cc2ccccc2)NC(=O)[C@H](CCC(=O)O)NC(=O)[C@H](CC(=O)O)NC(=O)CNC(=O)[C@H]([C@@H](C)CC)NC1=O)[C@@H](C)CC (stereo partly shown) [compound 1784]	11.6
